Results: patent US12331037B2, “Pyrimidines as EGFR-inhibitors and methods of treating disorders” (Dana-Farber Cancer Institute, Inc., priority 2014, dated 2025)
pIC50: −log10 of the molar value. Where two headings read alike, the source gives them in different places.

Key:
Ba/F3 EGFR DEL/L718Q = experiment: Ba/F3 cell proliferation (MTS) assay; assay type: cell-based, murine; details: Mus musculus
Method: (§1) Murine Ba/F3 cells are engineered to express mutant EGFR protein along with untransformed Ba/F3 cells and are used to performed single drug screens. Cell viability is assessed after 72 hours of compound i.e., compounds of Formula (I), exposure using the colorimetric cell proliferation MTS assay kit (Promega).
(§2) All cell lines were maintained in RPMI 1640 (Invitrogen, Carlsbad, CA) supplemented with 10% FBS 100 units/mL penicillin, 100 units/mL streptomycin, and 2 mM glutamine.
(§3) Ba/F3, NIH-3T3, cells were infected with retrovirus and PC9GR4 and HCC827 EPR cells infected with lentivirus according to standard protocols, as described previously (Engelman, J. A., et al., Proc Natl Acad Sci USA. 2005; 102:3788-93). Stable clones were obtained by selection in puromycin (2 μg/ml).
(§4) Growth and inhibition of growth was assessed by MTS assay and was performed according to previously established methods (Zhou, W., et al., Nature. 462, 2009, 1070-4; Ercan, D., et al., Cancer Discov. 934, 2012, 934-47). […] All experimental points were set up in six wells and all experiments were repeated at least three times. […] The curves were fitted using a non-linear regression model with a sigmoidal dose response.

Ba/F3 EGFR DEL/844V = experiment: Ba/F3 cell proliferation (MTS) assay; assay type: cell-based, murine; details: Mus musculus
Method: as §1, §2, §3, §4

[1] = system: Ba/F3 EGFR L858R/T790M/L718Q; experiment: Ba/F3 cell proliferation (MTS) assay; assay type: cell-based, murine; details: Mus musculus
Method: as §1, §2, §3, §4

Ba/F3 EGFR L718Q = experiment: cells; details: Mus musculus, 72 h
Method: as §1, §2
The EGFR L718Q and L844V mutations were introduced via site directed mutagenesis using the Quick Change Site-Directed Mutagenesis kit (Stratagene; La Jolla, CA) according to the manufacturer's instructions. The L718Q mutation was generated using forward primer 5′-[sequence]-3′ (SEQ. ID. NO. 1) and reverse primer 5′ [sequence]-3′ (SEQ. ID. NO. 2). The L844V mutation was generated using forward primer 5′-[sequence]-3′ (SEQ. ID. NO. 3) and reverse primer 5′-[sequence]-3′ (SEQ. ID. NO. 4). All constructs were confirmed by DNA sequencing. The constructs were shuttled into the retroviral vector JP1540 or lentiviral vector JP1698 using the BD Creator™ System (BD Biosciences). […]
Growth and inhibition of growth was assessed by MTS assay and was performed according to previously established methods (Zhou, W., et al., Nature. 462, 2009, 1070-4; Ercan, D., et al., Cancer Discov. 934, 2012, 934-47). […]

[2] = system: Ba/F3 EGFR DEL/T790M/L718Q; experiment: Ba/F3 cell proliferation (MTS) assay; assay type: cell-based, murine; details: Mus musculus
Method: as §1, §2, §3, §4

Ba/F3 EGFR WT = experiment: Ba/F3 cell proliferation (MTS) assay; assay type: cell-based, murine; details: Mus musculus
Method: as §1
(§5) All experimental points were set up in six wells and all experiments were repeated at least three times. […] The curves were fitted using a non-linear regression model with a sigmoidal dose response.

Ba/F3 EGFR DEL = experiment: Ba/F3 cell proliferation (MTS) assay; assay type: cell-based, murine; details: Mus musculus
Method: as §1, §5

Ba/F3 EGFR L858R/T790M = experiment: Ba/F3 cell proliferation (MTS) assay; assay type: cell-based, murine; details: Mus musculus
Method: as §1, §5

Ba/F3 EGFR DEL/T790M = experiment: Ba/F3 cell proliferation (MTS) assay; assay type: cell-based, murine; details: Mus musculus
Method: as §1, §5

Ba/F3 EGFR L858R/L718Q = experiment: Ba/F3 cell proliferation (MTS) assay; assay type: cell-based, murine; details: Mus musculus
Method: as §1, §2, §3, §4

Ba/F3 EGFR L858R = experiment: Ba/F3 cell proliferation (MTS) assay; assay type: cell-based, murine; details: Mus musculus
Method: as §1, §5

[3] = Ba/F3, EGFR DEL/L718Q, 72 hours, MTS, read-out: IC50
[4] = Ba/F3, EGFR DEL/844V, 72 hours, MTS, read-out: IC50
[5] = Ba/F3, EGFR L858R/T790M/L718Q, 72 hours, MTS, read-out: IC50
[6] = Ba/F3, EGFR DEL/T790M/L718Q, 72 hours, MTS, read-out: IC50
[7] = Ba/F3, EGFR WT, 72 hours, MTS, read-out: IC50
[8] = Ba/F3, EGFR DEL, 72 hours, MTS, read-out: IC50
[9] = Ba/F3, EGFR L858R/T790M, 72 hours, MTS, read-out: IC50
[10] = Ba/F3, EGFR DEL/T790M, 72 hours, MTS, read-out: IC50
[11] = Ba/F3, EGFR L858R/L718Q, 72 hours, MTS, read-out: IC50
[12] = Ba/F3, EGFR L858R, 72 hours, MTS, read-out: IC50

Compound | pIC50 (Ba/F3 EGFR L718Q) | pIC50 (Ba/F3 EGFR DEL/L718Q; [3]) | pIC50 (Ba/F3 EGFR DEL/844V; [4]) | pIC50 [1, 5] | pIC50 [2, 6] | pIC50 (Ba/F3 EGFR WT; [7]) | pIC50 (Ba/F3 EGFR DEL; [8]) | pIC50 (Ba/F3 EGFR L858R/T790M; [9]) | pIC50 (Ba/F3 EGFR DEL/T790M; [10]) | pIC50 (Ba/F3 EGFR L858R/L718Q; [11]) | pIC50 (Ba/F3 EGFR L858R; [12]) | also measured
C=CC(=O)Nc1cc(Nc2nccc(-c3cn(C)c4ccccc34)n2)c(OC)cc1N(C)CCN(C)C [AZD9291] | 5.90 | – | – | – | – | – | – | – | – | – | – | pIC50 (Ba/F3 EGFR DEL/L718Q; Ba/F3 EGFR, 72 h): 7.26; pIC50 (Ba/F3 EGFR DEL/844V; Ba/F3 EGFR, 72 h): 7.82; pIC50 ([1]; Ba/F3 EGFR, 72 h): 5.90; pIC50 ([2]; Ba/F3 EGFR, 72 h): 6.24; pIC50 (Ba/F3 EGFR WT; Ba/F3 EGFR, 72 h): 7.64; pIC50 (Ba/F3 EGFR DEL; Ba/F3 EGFR, 72 h): 8.75; pIC50 (Ba/F3 EGFR L858R/T790M; Ba/F3 EGFR, 72 h): 8.00; pIC50 (Ba/F3 EGFR DEL/T790M; Ba/F3 EGFR, 72 h): 8.00; pIC50 (Ba/F3 EGFR L858R/L718Q; Ba/F3 EGFR, 72 h): 5.93; pIC50 (Ba/F3 EGFR L858R; Ba/F3 EGFR-L858R, 72 h): 8.70
C=CC(=O)Nc1cc(Nc2nccc(-n3ccc4cccnc43)n2)c(OC)cc1N(C)CCN(C)C [Compound I-1, N-(5-((4-(1H-pyrrolo[2,3-b]pyridin-1-yl)pyrimidin-2-yl)amino)-2-((2-(dimethylamino)ethyl)(methyl)amino)-4-methoxyphenyl)acrylamide] | – | 6.75 | 7.27 | 5.71 | 6.19 | 6.49 | 7.37 | 6.72 | 7.19 | 5.69 | 7.22 | –
C=CC(=O)Nc1cccc(Oc2nc(Nc3ccc(N4CCN(C)CC4)cc3OC)ncc2Cl)c1 [WZ4002] | 5.54 | 5.83 | 6.02 | 5.65 | 5.70 | 7.00 | 8.08 | 7.85 | 7.72 | 5.56 | 8.17 | –
